In patent US10266544B2, “Aryl substituted aminomethyl spectinomycin analogs as antibacterial agents” (ST. JUDE CHILDREN'S RESEARCH HOSPITAL, INC., priority 2013, dated 2019) one finds MIC and zone of inhibition data, which are given here for six molecules.

Values after ≈ are worked out from the molar mass of the structure shown. Counter-ions that a name gives are not always drawn. Like-named read-outs stand apart in the source and are kept apart here.

What all share (type): cell-based
Assay [1] deals with Streptococcus pyogenes (ATCC 700294). In words: MIC determination, microbroth dilution. The following applies: ATCC700294; Streptococcus pyogenes (ATCC 700294); read-out: MIC S. py. On the technique in general: Dilution methods test growth across graded concentrations, often in twofold steps.
Assay [2] relates to Neisseria meningitides (ATCC 13077). As to the kind of experiment: Disc diffusion assay. The following applies: ATCC13077, 4 μg per disc, read-out: Zone of inhibition N.m.
Assay [3] has as its system Neisseria gonorrhoeae (ATCC 49226). As to the kind of experiment: Disc diffusion assay. The following applies: ATCC49226, 4 μg per disc, read-out: Zone of inhibition N.g. (In general: Agar diffusion results depend on both activity and mobility in agar.)
Assay [4] concerns Legionella pneumophila (ATCC 33153). As to the kind of experiment: microbe, parasite or virus in culture. The following applies: ATCC33153, 72 h, read-out: Zone of inhibition L.p.
Assay [5] concerns Streptococcus pneumoniae (R6). In words: MIC determination, microbroth dilution. The following applies: Streptococcus pneumoniae (R6); read-out: MIC S. pn.
The subject of assay [6] is Escherichia coli (ATCC 700926). As to the kind of experiment: MIC determination, microbroth dilution. The following applies: ATCC700926; Escherichia coli (ATCC 700926); read-out: MIC E.c. The protocol:
MICs were determined using the microbroth dilution method according to Clinical Laboratory Standards Institute (CLSI; National, C. F. C. L. S., Methods for Dilution Antimicrobial Susceptibility Tests for Bacteria Grow aerobically-Seventh Edition: Approved Standard M7-A7, CLSI, Wayne, Pa., USA, 2008) and were read by visual inspection. Two fold serial dilutions of antibiotic in 100 μL of the appropriate broth media were first prepared in 96-well round bottom microtiter plates (Nalge Nunc International, Rochester, N.Y., USA). An equivalent volume (100 μL) of bacterial broth inocula containing approximately 10^5 bacterial cfu/mL was added to each well to give final concentrations of drug starting at 200 μg/mL and the plates were incubated aerobically at 37° C. M. tuberculosis microtiter plates were incubated for 7 days and all other strains were incubated overnight. After incubations, in all cases the MIC was recorded as the lowest concentration of drug that prevented bacterial growth.

A further assay has as its system Bacillus anthracis. In words: microbe, parasite or virus in culture. The following applies: read-out: MIC B.a.
For assay [7], the system named is Pseudomonas aeruginosa (PA01). As to the kind of experiment: MIC determination, microbroth dilution.
Assay [8] deals with Bacillus subtilis (ATCC 23857). As to the kind of experiment: MIC determination, microbroth dilution. The following applies: ATCC23857; Bacillus subtilis (ATCC 23857); read-out: MIC B.s.
Assay [9] deals with Proteus mirabilis (ATCC 25933). In words: MIC determination, microbroth dilution. The following applies: ATCC25933.
Assay [10] has as its system Haemophilus influenza (ATCC 49247). As to the kind of experiment: microbe, parasite or virus in culture. The following applies: ATCC49247; Haemophilus influenza; 4 μg per disc; range of at least two experiments; read-out: Zone of inhibition H.i.
Assay [11] deals with Klebsiella pneumoniae (ATCC 33495). As to the kind of experiment: MIC determination, microbroth dilution. The following applies: ATCC33495.
Assay [12] deals with Staphylococcus aureus (ATCC 29213). As to the kind of experiment: MIC determination, microbroth dilution. The following applies: ATCC29213; Staphylococcus aureus (ATCC 29213); read-out: MIC S.a.
The next assay concerns E. coli K12 ΔtolC. In words: microbe, parasite or virus in culture. The following applies: Escherichia coli, read-out: MIC E.c. Δtolc.
For assay [13], the system named is M. tuberculosis clinical isolates. As to the kind of experiment: microbe, parasite or virus in culture. The following applies: Mycobacterium tuberculosis.
Assay [14] concerns Stenotrophomonas maltophilia (ATCC 13637). In words: MIC determination, microbroth dilution. The following applies: ATCC13637; Stenotrophomonas maltophilia (ATCC 13637); read-out: MIC S.m.
Assay [15] has as its system Bacillus anthracis, Sterne 34F2. In words: microbe, parasite or virus in culture. The following applies: STERNE34F2, read-out: MIC B.a.
Assay [16] has as its system MRSA, Staphylococcus aureus (NRS70). In words: MIC determination, microbroth dilution. The following applies: Staphylococcus aureus (NRS70); read-out: MIC MRSA.
Assay [17] relates to acinetobacter baumannii (ATCC 19606). In words: MIC determination, microbroth dilution. The following applies: ATCC19606.
Assay [18] concerns Enterococcus faecalis (ATCC 33186). As to the kind of experiment: MIC determination, microbroth dilution. The following applies: ATCC33186; Enterococcus faecalis (ATCC 33186); read-out: MIC E.f.
Assay [19] concerns Burkholderia cepacia (ATCC 25416). As to the kind of experiment: MIC determination, microbroth dilution. The following applies: Burkholderia cepacia.
Assay [20] deals with Proteus vulgaris (ATCC 33420). As to the kind of experiment: MIC determination, microbroth dilution. The following applies: ATCC33420.
The subject of a further assay is Moraxella catarrhalis. As to the kind of experiment: MIC determination (Table 6).
In the next assay the test system is Listeria monocytogenes. In words: MIC determination (Table 6).
[21] abbreviates: ATCC25416, read-out: MIC B.c., Burkholderia cepacia (ATCC 25416).
Setting [22] is: ATCC25416, read-out: MIC B.c., Burkholderia cepacia, Table 6.

With `CN[C@@H]1[C@H](O)[C@H](NC)[C@H]2O[C@]3(O)[C@H](O[C@@H]2[C@H]1O)O[C@H](C)C[C@]3(O)CNCCc1ccccc1` [compound 27, 3′-(S)-3′-(phenethylaminomethyl)dihydrospectinomycin Trihydrochloride], the MIC is 50 to 100 mg/L in assay [1]; above 200 mg/L in assay [5]; 50 to 100 mg/L in [6]; above 200 mg/L with Bacillus anthracis; above 200 mg/L in [7]; above 200 mg/L in assay [8]. Further, the MIC was above 200 mg/L in assay [9]; above 200 mg/L in assay [11]; above 200 mg/L in assay [12]; 25 to 50 mg/L in the assay with E. coli K12 ΔtolC; 200 mg/L in assay [13] (H37RV, read-out: MIC H37Rv); at least 200 mg/L in assay [14]. The MIC in [15] was above 200 mg/L; in assay [16], above 200 mg/L; in assay [17], at least 200 mg/L; in assay [18], above 200 mg/L; in [19] (setting [21]), 200 mg/L; in assay [19] (setting [22]), above 200 mg/L. This molecule yielded an MIC in [20] above 200 mg/L. The zone of inhibition at 4 µg/disc is 0 mm in [2], 7 mm in assay [3], 0 mm in assay [4] and 0 mm in assay [10].

Regarding `CN[C@@H]1[C@H](O)[C@H](NC)[C@H]2O[C@]3(O)[C@H](O[C@@H]2[C@H]1O)O[C@H](C)C[C@@]3(O)CNc1ccc(OC)cc1` [compound 29, 3′-(R)-3′-[(4-methoxy)phenylaminomethyl)]dihydrospectinomycin Trihydrochloride], the MIC was 25 mg/L in [1]; above 200 mg/L in assay [5]; at least 200 mg/L in assay [6]; above 200 mg/L in assay [7]; 200 mg/L in assay [8]; above 200 mg/L in assay [9]. The MIC is above 200 mg/L in [11]; 200 mg/L in assay [12]; 50 mg/L in the assay on E. coli K12 ΔtolC; above 200 mg/L in [13] (H37RV, read-out: MIC H37Rv); 200 mg/L in assay [14]; 100 to 200 mg/L in [15]. Also, the values for the MIC in [16], in [17] and in assay [20] were above 200 mg/L, at least 200 mg/L and above 200 mg/L, respectively. Moreover, the zone of inhibition at 4 µg/disc stood at 7 mm in [2], 12 mm in [3], 0 mm in [4] and 7 mm in assay [10].

Regarding `CN[C@@H]1[C@H](O)[C@H](NC)[C@H]2O[C@]3(O)[C@H](O[C@@H]2[C@H]1O)O[C@H](C)C[C@@]3(O)CNc1ccccc1` [compound 30, 3′-(R)-3′-(phenylaminomethyl)dihydrospectinomycin Trihydrochloride], the MIC is 12.5 to 25 mg/L in assay [1]; 12.5 to 25 mg/L in [5]; 200 mg/L in [6]; above 200 mg/L in assay [7]; at least 200 mg/L in assay [8]; above 200 mg/L in assay [9]. In addition, the MIC in assay [11] is above 200 mg/L; in assay [12], above 200 mg/L; in the assay on E. coli K12 ΔtolC, 50 mg/L; in [13] (H37RV, read-out: MIC H37Rv) it was above 200 mg/L; in [14], at least 200 mg/L; in assay [15], 100 to 200 mg/L. Further, the MIC in assay [16], in assay [17], in [19] (setting [21]) and in assay [20] was above 200 mg/L throughout. Besides, the zone of inhibition at 4 µg/disc in [2] was found to be 6 mm; in [3], 7 mm; in [4], 0 mm; in assay [10], 6 mm.

Turning to `CN[C@@H]1[C@H](O)[C@H](NC)C2O[C@]3(O)C(OC2[C@H]1O)O[C@H](C)C[C@@]3(O)CNCc1cccc(O)c1` (stereo partly shown) [compound 35], the MIC was 0.4 to 0.8 mg/L (≈ 0.852 to 1.7 µM) in assay [1]; 0.8 to 1.6 mg/L (≈ 1.7 to 3.41 µM) in assay [5]; 200 mg/L (≈ 426 µM) in assay [6]; at least 200 mg/L in [7]; 6.3 mg/L (≈ 13.4 µM) in [8]; above 200 mg/L in assay [9]. The MIC in assay [11] is above 200 mg/L; in assay [12] it was 25 to 50 mg/L (≈ 53.2 to 106 µM); with E. coli K12 ΔtolC it was 6.3 to 12.5 mg/L (≈ 13.4 to 26.6 µM); in assay [13] (H37RV, read-out: MIC H37Rv), 50 mg/L (≈ 106 µM); in [14], 25 mg/L (≈ 53.2 µM); in [15], 25 mg/L (≈ 53.2 µM). For the same molecule, the MIC in assay [16] was 25 to 50 mg/L (≈ 53.2 to 106 µM); in assay [17], above 200 mg/L; in assay [18], 12.5 mg/L (≈ 26.6 µM); in assay [19] (setting [21]), above 200 mg/L; in assay [20] it was at least 200 mg/L. In addition, the zone of inhibition at 4 µg/disc in assay [2] was 18 mm; in [3], 16 mm; in [4], 30 mm; in assay [10] it was 15 to 16 mm.

Consider `CN[C@@H]1[C@H](O)[C@H](NC)[C@H]2O[C@]3(O)[C@H](O[C@@H]2[C@H]1O)O[C@H](C)C[C@@]3(O)CNc1ccc(F)cc1` [compound 31, 3′-(R)-3′-[(4-fluoro)phenylaminomethyl)]dihydrospectinomycin Trihydrochloride], for which the MIC in assay [1] was 12.5 to 25 mg/L; in assay [5] it was 12.5 to 25 mg/L; in [6] it was 100 to 200 mg/L; in assay [7], above 200 mg/L; in [8], 200 mg/L; in assay [9] it was above 200 mg/L. Moreover, the MIC is above 200 mg/L in [11]; 200 mg/L in assay [12]; 50 to 100 mg/L in the assay on E. coli K12 ΔtolC; 200 mg/L in assay [13] (H37RV, read-out: MIC H37Rv); 200 mg/L in [14]; 200 mg/L in [15]. In addition, the MIC in assay [16], in assay [17], in [19] (setting [21]) and in assay [20] was above 200 mg/L in each case. The zone of inhibition at 4 µg/disc stood at 12 mm in assay [3], 0 mm in [4] and 6 mm in assay [10].

On to `CN[C@@H]1[C@H](O)[C@H](NC)[C@H]2O[C@]3(O)[C@H](O[C@@H]2[C@H]1O)O[C@H](C)C[C@@]3(O)CNCCc1ccncc1` [compound 63, 3′-(R)-3′-[((2-(pyridin-4-yl)ethyl)aminomethyl]dihydrospectinomycintetrahydrobromide], for which the MIC with Moraxella catarrhalis was 12.5 mg/L; in the assay with Bacillus anthracis, above 200 mg/L; in assay [11] it was above 200 mg/L; in assay [12], above 200 mg/L; in assay [13] (H37RV, read-out: MIC H37Rv), 25 mg/L; in assay [13] (read-out: MIC TN022), 25 mg/L. The MIC in assay [13] (read-out: MIC TN026) was 25 mg/L; in [15], above 200 mg/L; in assay [16], above 200 mg/L; in [17], above 200 mg/L; in the assay on Listeria monocytogenes, 100 mg/L; in [19] (setting [21]) it was above 200 mg/L. Also, the MIC in assay [19] (setting [22]) was above 200 mg/L.

One may read the zone of inhibition as the size of the clear area around the sample on an inoculated plate.
